The values below are quoted from earlier work in PMC2716802 (Structure (London, England : 1993), 2008).

One may read the Ki as the equilibrium dissociation constant of an inhibitor or competing ligand from its target.

No end group written: not given here.

This series concerns the target BoNT/A LC (Clostridium botulinum, UniProt P0DPI0).

Sequence of BoNT/A LC (P0DPI0 2-448 limits assumed): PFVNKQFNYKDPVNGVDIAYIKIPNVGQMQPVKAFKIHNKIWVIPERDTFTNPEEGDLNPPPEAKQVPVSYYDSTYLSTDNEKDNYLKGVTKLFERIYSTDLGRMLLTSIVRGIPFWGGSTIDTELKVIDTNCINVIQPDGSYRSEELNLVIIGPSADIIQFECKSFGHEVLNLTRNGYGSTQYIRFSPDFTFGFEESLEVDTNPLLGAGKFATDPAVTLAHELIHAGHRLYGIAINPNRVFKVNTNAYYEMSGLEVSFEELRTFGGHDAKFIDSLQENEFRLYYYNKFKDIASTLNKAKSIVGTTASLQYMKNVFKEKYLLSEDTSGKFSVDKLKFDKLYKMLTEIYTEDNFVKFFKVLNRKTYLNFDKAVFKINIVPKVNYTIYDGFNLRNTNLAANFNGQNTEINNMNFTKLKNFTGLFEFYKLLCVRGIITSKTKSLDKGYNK

As for Ac-CRATKML, the inhibition constant (Ki) was 1900 nM.
